Patent US20220348590A1, “CYCLOOXYGENASE-2 INHIBITORS AND USES THEREOF” (The Board Institute, Inc., priority 2019, published 2022)
Like-named read-outs stand apart in the source and are kept apart here.

Key:
ovine COX-1 (oCOX-1) = target: T1, ovine COX-1 (oCOX-1) (Ovis aries, UniProt P05979); assay: LCMS-based COX-1 enzymatic inhibition assay (PGE2 quantification); assay type: biochemical; conditions: 10 minutes
T1 construct: purchased Cayman Chemicals (Ann Arbor, Mich.)
T1 sequence (P05979 25-600): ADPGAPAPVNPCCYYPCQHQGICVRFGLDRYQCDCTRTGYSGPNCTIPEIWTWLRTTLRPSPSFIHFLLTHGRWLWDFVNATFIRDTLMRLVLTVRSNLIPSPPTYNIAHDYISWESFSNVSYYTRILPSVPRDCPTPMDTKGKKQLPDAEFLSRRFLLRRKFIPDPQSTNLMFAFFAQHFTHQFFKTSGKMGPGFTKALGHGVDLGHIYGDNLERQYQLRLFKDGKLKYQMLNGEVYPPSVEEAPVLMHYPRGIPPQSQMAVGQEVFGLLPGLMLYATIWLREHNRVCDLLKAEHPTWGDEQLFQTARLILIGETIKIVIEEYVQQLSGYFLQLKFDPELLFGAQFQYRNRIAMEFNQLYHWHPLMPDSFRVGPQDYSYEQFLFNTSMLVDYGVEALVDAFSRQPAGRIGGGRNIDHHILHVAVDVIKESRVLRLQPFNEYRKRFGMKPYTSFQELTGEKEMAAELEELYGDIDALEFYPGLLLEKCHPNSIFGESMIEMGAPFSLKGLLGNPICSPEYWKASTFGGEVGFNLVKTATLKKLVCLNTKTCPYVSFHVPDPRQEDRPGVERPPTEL
How it was run: (§1)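 Ovine COX-1 (0.1 μg) or human recombinant COX2 (0.2 μg) in 100 mM Tris.HCl pH 8.0 with hematin and epinephrine, preincubated with inhibitor 10 min at 37 °C. Reaction with 5 μM arachidonic acid stopped after 2 min with HCl; PGE2 quantified by LC-MS-MS. IC50 from 12 concentrations in triplicate.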

[1] = target: T2, human recombinant COX2 (hCOX2) (UniProt P35354); assay: LCMS-based COX2 enzymatic inhibition assay (PGE2 quantification); assay type: biochemical; design: COX2 2 minutes pge2/pge2d4 area ratio Avg; other: 2 minutes; readout pge2/pge2d4 area ratio; average; COX2 2 minutes pge2/pge2d4 area ratio Avg; LLE; average LLE; COX2 2 minutes pge2 area (counts) Avg; readout pge2 area (counts); other: 2 min; "ovine COX2 (oCOX2), human recombinant COX2 (hCOX2)"; conditions: for IC50: average
T2 sequence (P35354 1-604): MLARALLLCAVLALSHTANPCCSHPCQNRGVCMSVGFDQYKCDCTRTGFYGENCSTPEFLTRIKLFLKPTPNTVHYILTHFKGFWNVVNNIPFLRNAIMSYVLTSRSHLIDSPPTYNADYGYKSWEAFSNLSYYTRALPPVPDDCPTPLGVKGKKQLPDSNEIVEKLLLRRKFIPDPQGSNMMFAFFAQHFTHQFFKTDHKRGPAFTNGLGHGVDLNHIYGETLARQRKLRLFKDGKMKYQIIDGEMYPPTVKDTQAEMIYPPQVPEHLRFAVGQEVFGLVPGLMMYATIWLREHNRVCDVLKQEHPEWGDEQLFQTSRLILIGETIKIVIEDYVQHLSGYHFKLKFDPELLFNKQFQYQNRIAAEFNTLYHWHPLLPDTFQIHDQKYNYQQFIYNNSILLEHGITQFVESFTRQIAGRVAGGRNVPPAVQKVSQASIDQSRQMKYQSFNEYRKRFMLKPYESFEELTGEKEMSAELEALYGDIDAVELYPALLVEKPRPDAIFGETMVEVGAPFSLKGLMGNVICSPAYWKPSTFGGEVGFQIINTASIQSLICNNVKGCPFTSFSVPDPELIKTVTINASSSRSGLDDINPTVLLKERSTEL
How it was run: as §1

[2] = Human Microsome Stability; assay type: in vitro ADME; conditions: human microsomes
[3] = head of this section not shown, inferred
[4] = pge2 area (counts), head of this section not shown, inferred
[5] = pge2 area (counts), head of this section not shown, inferred, read-out: COX1 10 minutes pge2 area (counts) Avg. IC50
[6] = readout pge2/pge2d4 area ratio, average, read-out: COX1 10 minutes pge2/pge2d4 area ratio Avg. IC50
[7] = 2 minutes, readout pge2/pge2d4 area ratio, average LLE
[8] = 2 minutes, readout pge2/pge2d4 area ratio, read-out: COX2 2 minutes pge2/pge2d4 area ratio Avg. IC50
[9] = 2 minutes, readout pge2 area (counts), average LLE
[10] = 2 minutes, readout pge2 area (counts), read-out: COX2 2 minutes pge2 area (counts) Avg. IC50

| SMILES | COX1 10 minutes pge2/pge2d4 area ratio Avg. LLE (ovine COX-1 (oCOX-1); [3]) | COX1 10 minutes pge2 area (counts) Avg. LLE (ovine COX-1 (oCOX-1); [4]) | IC50 (ovine COX-1 (oCOX-1); [5]) | IC50 (ovine COX-1 (oCOX-1); [6]) | COX2 2 minutes pge2/pge2d4 area ratio Avg. LLE [1, 7] | IC50 [1, 8] | COX2 2 minutes pge2 area (counts) Avg. LLE [1, 9] | IC50 [1, 10] | COX2 10 minutes pge2 area (counts) Avg. LLE ([1]; 10 minutes, readout pge2 area (counts), average LLE) | IC50 ([1]; 10 minutes, readout pge2 area (counts), read-out: COX2 10 minutes pge2 area (counts) Avg. IC50) | Human Microsome Stability % Remaining Avg [2] |
| --- | --- | --- | --- | --- | --- | --- | --- | --- | --- | --- | --- |
| COc1ccc(NCc2cccs2)nc1-c1ccc(S(C)(=O)=O)nc1 [Compound 88] | 2.306 | 2.306 | 16000 nM | 16000 nM | 4.709 | 63.4 nM | 4.67 | 69.3 nM | – | – | – |
| Cc1ccoc1CNc1cccc(-c2ccc(S(C)(=O)=O)cc2)n1 [Compound 91] | 1.267 | 1.134 | – | 38300 nM | 4.034 | 68.6 nM | 4.0886 | 65.3 nM | – | – | – |
| CS(=O)(=O)c1ccc(-c2cncc(NCc3ccccc3)n2)cc1 [Compound 93] | – | 2.104 | – | – | 5.017 | 69 nM | 5.139 | 55.8 nM | 5.9924 | 6.85 nM | – |
| CS(=O)(=O)c1ccc(-c2cnc3cnn(Cc4cccs4)c3n2)cc1 [Compound 94] | 2.552 | 2.532 | 10700 nM | 10200 nM | 4.786 | 71 nM | 4.818 | 69.9 nM | – | – | – |
| CS(=O)(=O)c1ccc(-c2cccc(NCc3cncs3)n2)cc1 [Compound 99] | 1.498 | – | – | 45900 nM | 4.286 | 77.9 nM | 4.248 | 86.9 nM | – | – | – |
| C[S+]([O-])c1ccc(-c2cncc(NCc3cccs3)n2)cc1 (centres unmarked) [Compound 129] | – | 2.83 | 50200 nM | – | 5.405 | 152 nM | 5.443 | 141 nM | – | – | – |
| CS(=O)(=O)c1ccc(-c2nc(NCc3ccco3)ccc2F)cc1 [Compound 218] | – | – | – | – | 3.092 | 1610 nM | 3.132 | 1720 nM | – | – | 15% |
| CSc1ccc(-c2cncc(OCc3cccs3)n2)cc1 [Compound 253] | – | 0.8637 | 19300 nM | – | 1.5751 | 3760 nM | 1.45 | 4840 nM | – | – | – |
